Experimental data reported in patent publication US20160297828A1, “SPIROCYCLIC COMPOUNDS CONTAINING SPIRO[INDOLYL-3,1'-PYRROLO[3,4-C]PYRROLE] CORE AND SULPHUR-CONTAINING AMINO ACID RESIDUES” (priority 2013, published 2016).
Values joined by “and” are separate entries in the source; they are usually repeats but may differ in a detail not shown here. Equal entries are not always repeated.

Legend:
[1] = tested on: rats with intracerebral hemorrhage; assay: Neurological deficit (C. P. McGrow stroke-index scale) in rats with intracerebral hemorrhage; format: in vivo; settings: n = 15
Method: Neuroprotective effect of 3,2′-spiro-pyrrolo-2-oxindole derivative (SI-86 compound) was studied on IUD model of moderate severity modeled under propofol anesthesia (60 mg/kg intraperitoneally (ip)) by autoblood administration into the brain internal capsule (stereotactic coordinates of the projection: H=7.0 mm, L=3.0 mm, A=1.5 mm from bregma) ([…]) (Method for reproduction of intracerebral hemorrhage in rats/O. K. Yarosh, S. V. Kyrychenko, S. P. Halimonchyk [et al.]//Circulation and hemostasis.-2005.-No. 1.-P. 77-81). The chosen model allows to reproduce clinical pattern of […] and is adequate for clinical study of potential neuroprotective agents.
As comparators the following drugs were used: mexydol (“Mexydol” UC Pharmasoft, Russia), 100 mg/kg; citicoline (“Somazina” Ferrer International, SA, Spain), 250 mg/kg; aktovegin (“Aktovegin”, Nycomed, Austria), 16 mg/kg pyracetam (“Pyracetam” Darnitsa, Ukraine), 400 mg/kg. According to the latest clinical guidelines regarding the treatment of patients with CVA approved by the Ministry of Health of Ukraine (Order No. 602 dated 3 Aug. 2012), all these drugs are allowed to be included into schemes for intensive patients therapy with CVA as neuroprotective agents. They were used at recommended doses for preclinical studies (McGrow C. P. Experimental Cerebral Infarction Effects of Pentobarbital in Mongolian Gerbils/C. P. McGrow//Arch. Neurol.-1977.-Vol. 34, No. 6.-P. 334-336). Experimental therapy of acute cerebral ischemia with SI-86 compound and comparator started 1 hour after IUD once a day for 21 days. The SI-86 derivative was investigated in conventionally effective dose of 10 mg/kg […] (iv)-dose that according to the results of our previous study provides maximum antihypoxic activity of SI-86 compound. Reference drugs were injected intraperitoneally (ip). Rats of control pathology group were injected by autoblood and as therapy 0.9% NaCI solution was administered calculated for 2 ml/kg […].
Neurological deficit in animals with acute CVA respectively in acute (4th day) and recovery (21 st day) periods was measured on C. P. McGrow stroke-index scale. The state severity was determined by amount of relevant points: to 3 points-mild, 3 to 7 points-average, above 7 points-severe degree. Pareses, paralyses of limbs, tremors, circus movement, ptoses, lateral positions, ability of rats to be maintained at the core of 15 cm diameter, rotating at the rate of 3 rpm were noted. The animals were tested daily by displaying the amount of points:
one-sided semi-ptosis—0.5 points; one-sided ptosis—1 point; tremor—0.5 points; circus movements—0.5 points; pareses of limbs (for each limb)—1 point; paralyses of limbs (for each limb)—2 points; lateral position—3 points; disability to maintain on rotating rod during 4 minutes—3 points.

[2] = tested on: rat heart bioelectrical activity; assay: Acute asphyxia, duration of heart bioelectrical activity; format: in vivo, rats
Method: Acute asphyxia was modeled in rats anesthetized with propofol (60 mg/kg) intraperitoneally (ip) by complete clamping the trachea at electrocardiogram (EGC) registration. The antihypoxic effect was evaluated by duration of heart bioelectric activity (HBA). This model allows to estimate the heart sensitivity to hypoxia. An isoelectric ECG line for 1 minute considered as HBA termination, the pint of HBA termination corresponded to the last QRS complex on the ECG. The calculation of […] activity was performed by the above formula considering a point of last QRS complex registration as a lifetime.
The preliminary screening of test substances was performed on ANHHH model. All derivatives were administered in the same dose of 10 mg/kg […] (iv) 1 hour prior to pathological state modeling. […] The effectiveness of a leader compound was evaluated at doses 5; 10 and 15 mg/kg iv. Mexydol was chosen as a reference drug having antihypoxic action in combination with antioxidant and membrane protective activity, which is successfully used in patients with CVA and IM. Mexydol was administered intraperitoneally (ip) at a dose of 100 mg/kg according to similar scheme.

CSCC[C@@H]1N[C@@]2(C(=O)Nc3ccccc32)[C@@H]2C(=O)N(c3ccc(C)cc3)C(=O)[C@H]12 [SI-86, 5′-(4-Methylphenyl)-3′-[2-(methylthio)ethyl]-3a′,6a′-dihydro-2′H-spiro[indole-3,1′-pyrrolo[3,4-c]pyrrol]-2,4′,6′(1H,3′H,5′H)-trione]
neurological deficit, average point under C. P. McGrow scale ([1]; day 4, SI-86 10 mg/kg iv, mexydol 100, citocoline 250, actovegin 16, pyracetam 400 mg/kg ip): 4.1 points and 4.10 ± 0.32°*^#•$ points | neurological deficit, average point under C. P. McGrow scale ([1]; day 21, same doses): 3.1 points and 3.10 ± 0.33°*^#&$ points | Antihypoxic activity ([2]; 5 mg/kg iv): +12.1% | Duration of heart bioelectrical activity ([2]; 5 mg/kg iv): 13.0 ± 1.5 min | Antihypoxic activity ([2]; 10 mg/kg iv): +5.8% | Duration of heart bioelectrical activity ([2]; 10 mg/kg iv): 12.3 ± 1.4 min | Antihypoxic activity ([2]; 15 mg/kg iv): −2.8% | Duration of heart bioelectrical activity ([2]; 15 mg/kg iv): 11.3 ± 1.0 min
